Experimental data published in patent US6337306B1, “Phenoxyacetic acid derivatives and their use as herbicides” (Rhone-Poulenc Agro, priority 1997, dated 2002).

Experiments:
Echinochloa oryzicola = assay: Test Method 1: soil application in paddy fields, herbicidal efficacy; assay type: in vivo; details: 1 kg ai/ha, wettable powder applied to paddy water, assessed 28 days after application; further: ranges in brackets are in %
Procedure: (§1) Test Method 1 (Soil Application in Paddy Fields) A suitable amount of water and chemical fertiliser were added to paddy field soil. A plastic pot (1/5000 a; 200 cm2) was filled with a portion of this soil followed by kneading to convert it to a state of a paddy field. A stock of paddy field rice plant (variety: Koshihikari) comprising a pair of two seedlings, which had been grown in advance in a greenhouse to the stage of two leaves, was transplanted into each pot. Furthermore, in each pot, there were sown predetermined amounts of seeds of Echinochloa orizicola, Monochoria vaginalis var. plantaginea, Lindernia procumbens and Scirpus jundoides var. hotarui, respectively, and water was added to a depth of 3 cm. On the next day a wettable powder formula was prepared by the method described in the Formulation Example 2, and diluted with a suitable amount of water to give a concentration of active ingredient of 1 kg per ha. The diluted formula was applied by dropping with a pipette. After 28 days from the application with the chemicals, herbicidal effects on each weeds and phytotoxicity on paddy field rice plants were assessed according to the following criteria of Table 3. [table]

Lindemia procunbens = assay: as above; assay type: in vivo; details: 1 kg ai/ha, wettable powder applied to paddy water, assessed 28 days after application; further: ranges in brackets are in %
Procedure: as §1

Monochoria vaginalis = assay: as above; assay type: in vivo; details: 1 kg ai/ha, wettable powder applied to paddy water, assessed 28 days after application; further: ranges in brackets are in %
Procedure: as §1

Scirpus juncoides = assay: as above; assay type: in vivo; details: 1 kg ai/ha, wettable powder applied to paddy water, assessed 28 days after application; further: ranges in brackets are in %
Procedure: as §1

Oryza sativa = assay: Test Method 1: soil application in paddy fields, phytotoxicity on transplanted paddy field rice plants; assay type: in vivo, Oryza sativa (variety: Koshihikari); details: 1 kg ai/ha, transplanted rice at two-leaf stage, assessed 28 days after application; further: ranges in brackets are in %
Procedure: as §1

Soya, Maize, Rice, Wheat = assay: Test Method 2: crop damage / selectivity, glass house pot test; assay type: in vivo, crop species; details: at levels of applications toxic to the weeds
Procedure: TEST METHOD 2 a) General Appropriate quantities of the compounds used to treat the plants were dissolved in acetone to give solutions equivalent to application rates of up to 250 g test compound per hectare (g/ha). These solutions were applied from an automatic laboratory herbicide sprayer delivering the equivalent of 720 liters of spray fluid per hectare. b) Weed control: Pre-emergence The seeds were sown in 70 mm square, 75 mm deep plastic pots in non-sterile soil, 3 species per pot. The quantities of seed per pot were as follows: [table] The compounds of the invention were applied to the soil surface, containing the seeds, as described in (a). Pots containing the species represented were allocated to each treatment, with unsprayed controls and controls sprayed with acetone alone. After treatment the pots were placed on capillary matting kept in a glass house, and watered overhead. Visual assessment of crop damage was made 17 days after spraying. The results were expressed as the percentage reduction in growth or damage to the crop or weeds, in comparison with the plants in the control pots.

Structure (SMILES)	Herbicidal efficacy (Point) ECHOR (Echinochloa oryzicola)	Herbicidal efficacy (Point) LIDPY (Lindemia procunbens)	Herbicidal efficacy (Point) MOOVA (Monochoria vaginalis)	Herbicidal efficacy (Point) SCPJU (Scirpus juncoides)	Phytotoxicity ORYSA (Oryza sativa)	crop selectivity (Soya, Maize, Rice, Wheat)	Herbicidal efficacy (Point) ECHOR (Echinochloa oryzicola; listed as 5.146 E isomer)	Herbicidal efficacy (Point) LIDPY (Lindemia procunbens; listed as 5.146 E isomer)	Phytotoxicity ORYSA (Oryza sativa; listed as 5.146 E isomer)	Herbicidal efficacy (Point) ECHOR (Echinochloa oryzicola; listed as 5.146 Z isomer)	Herbicidal efficacy (Point) LIDPY (Lindemia procunbens; listed as 5.146 Z isomer)	Phytotoxicity ORYSA (Oryza sativa; listed as 5.146 Z isomer)
COC=C(Oc1ccc(Cl)cc1CBr)C(=O)OC [Compound 1.73]	10 (90-100)	7 (60-70)	10 (90-100)	9 (80-90)	2 (10-20)	selective in at least one crop species	–	–	–	–	–	–
COC=C(Oc1ccc(Cl)cc1CO)C(=O)OC [Compound 1.313, Methyl 2-(2-Hydroxymethyl-4-chlorophenoxy)-3-methoxyacrylate]	10 (90-100)	10 (90-100)	10 (90-100)	10 (90-100)	3 (20-30)	selective in at least one crop species	–	–	–	–	–	–
COC=C(Oc1ccccc1COc1ccccc1C)C(=O)OC [Compound 2.6, Methyl 2-[2-(2-Methylphenoxy)methylphenoxy]-3-methoxyacrylate]	10 (90-100)	8 (70-80)	10 (90-100)	7 (60-70)	3 (20-30)	–	–	–	–	–	–	–
COC=C(Oc1ccc(Cl)cc1COc1ccccc1C)C(=O)OC [Compound 2.129]	10 (90-100)	9 (80-90)	10 (90-100)	8 (70-80)	2 (10-20)	selective in at least one crop species	–	–	–	–	–	–
COC=C(Oc1ccc(Cl)cc1COc1ccccc1C)C(=O)O [Compound 2.135, 2-[4-Chloro-2-(2-methylphenoxymethyl)]phenoxy-3-methoxyacrylic Acid]	4 (30-40)	0 (0)	9 (80-90)	4 (30-40)	0 (0)	–	–	–	–	–	–	–
COC=C(Oc1ccc(Cl)cc1COC(C)=O)C(=O)OC [Compound 2.619, Methyl 2-(2-Acetyloxymethyl-4-chlorophenoxy)-3-methoxyacrylate]	10 (90-100)	10 (90-100)	10 (90-100)	9 (80-90)	3 (20-30)	selective in at least one crop species	–	–	–	–	–	–
COC=C(Oc1ccc(Cl)cc1CON=C(C)C)C(=O)OC [Compound 4.61]	10 (90-100)	10 (90-100)	9 (80-90)	9 (80-90)	1 (0-10)	–	–	–	–	–	–	–
COC=C(Oc1ccccc1CON=C(C)c1ccc(Cl)cc1)C(=O)OC [Compound 4.68]	10 (90-100)	8 (70-80)	10 (90-100)	6 (50-60)	3 (20-30)	–	–	–	–	–	–	–
COC=C(Oc1ccc(Cl)cc1CON=C(C)c1ccc(Cl)cc1)C(=O)OC [Compound 4.71]	10 (90-100)	9 (80-90)	10 (90-100)	9 (80-90)	3 (20-30)	selective in at least one crop species	–	–	–	–	–	–
COC=C(Oc1ccccc1CON=C(C)OCc1ccccc1)C(=O)OC [Compound 4.99]	9 (80-90)	8 (70-80)	10 (90-100)	5 (40-50)	3 (20-30)	–	–	–	–	–	–	–
COC=C(Oc1ccc(Cl)cc1CON=C(C)OCc1ccccc1)C(=O)OC [Compound 4.107]	10 (90-100)	5 (40-50)	10 (90-100)	9 (80-90)	1 (0-10)	selective in at least one crop species	–	–	–	–	–	–
CCC(=NOCc1ccccc1)OCc1ccccc1OC(=COC)C(=O)OC [Compound 5.146 E isomer, Methyl 2-{2-[(1-Benzyloxyiminopropyl)oxymethyl]phenoxy}-3-methoxyacrylate]	–	–	–	–	–	–	9 (80-90)	8 (70-80)	2 (10-20)	–	–	–
CCC(=NOCc1ccccc1)OCc1ccccc1OC(=COC)C(=O)OC [Compound 5.146 Z isomer, Methyl 2-{2-[(1-Benzyloxyiminopropyl)oxymethyl]phenoxy}-3-methoxyacrylate]	–	–	10 (90-100)	3 (20-30)	–	–	–	–	–	10 (90-100)	9 (80-90)	3 (20-30)
CCC(=NOCc1ccccc1)OCc1cc(Cl)ccc1OC(=COC)C(=O)OC [Compound 5.541 E isomer]	10 (90-100)	10 (90-100)	10 (90-100)	9 (80-90)	1 (0-10)	selective in at least one crop species	–	–	–	–	–	–
